Seven compounds from patent US9340590B2 (priority 2011, dated 2016) can be followed below.

What all share (assay): cell-based
For one assay, the target named is hNav1.5 (Homo sapiens, UniProt Q14524).
A further assay deals with hNav1.7 (Homo sapiens, UniProt Q15858). The class given is cell-based. Particulars: IonWorks Quattro.
The next assay concerns the target hNav1.3 (Homo sapiens, UniProt Q9NY46). The note with it: IonWorks Quattro, read-out: IWQ Use Nav1.3.
Where [1] appears, read: IonWorks Quattro, Use, read-out: IWQ Use Nav1.5.

Like-named read-outs stand apart in the source and are kept apart here. Positions of bridges follow the written chain, without caps; N, C: chain ends. Residues, ends and D or L forms follow the SMILES beside them.

Chain of hNav1.5 (Q14524 whole entry, looked up): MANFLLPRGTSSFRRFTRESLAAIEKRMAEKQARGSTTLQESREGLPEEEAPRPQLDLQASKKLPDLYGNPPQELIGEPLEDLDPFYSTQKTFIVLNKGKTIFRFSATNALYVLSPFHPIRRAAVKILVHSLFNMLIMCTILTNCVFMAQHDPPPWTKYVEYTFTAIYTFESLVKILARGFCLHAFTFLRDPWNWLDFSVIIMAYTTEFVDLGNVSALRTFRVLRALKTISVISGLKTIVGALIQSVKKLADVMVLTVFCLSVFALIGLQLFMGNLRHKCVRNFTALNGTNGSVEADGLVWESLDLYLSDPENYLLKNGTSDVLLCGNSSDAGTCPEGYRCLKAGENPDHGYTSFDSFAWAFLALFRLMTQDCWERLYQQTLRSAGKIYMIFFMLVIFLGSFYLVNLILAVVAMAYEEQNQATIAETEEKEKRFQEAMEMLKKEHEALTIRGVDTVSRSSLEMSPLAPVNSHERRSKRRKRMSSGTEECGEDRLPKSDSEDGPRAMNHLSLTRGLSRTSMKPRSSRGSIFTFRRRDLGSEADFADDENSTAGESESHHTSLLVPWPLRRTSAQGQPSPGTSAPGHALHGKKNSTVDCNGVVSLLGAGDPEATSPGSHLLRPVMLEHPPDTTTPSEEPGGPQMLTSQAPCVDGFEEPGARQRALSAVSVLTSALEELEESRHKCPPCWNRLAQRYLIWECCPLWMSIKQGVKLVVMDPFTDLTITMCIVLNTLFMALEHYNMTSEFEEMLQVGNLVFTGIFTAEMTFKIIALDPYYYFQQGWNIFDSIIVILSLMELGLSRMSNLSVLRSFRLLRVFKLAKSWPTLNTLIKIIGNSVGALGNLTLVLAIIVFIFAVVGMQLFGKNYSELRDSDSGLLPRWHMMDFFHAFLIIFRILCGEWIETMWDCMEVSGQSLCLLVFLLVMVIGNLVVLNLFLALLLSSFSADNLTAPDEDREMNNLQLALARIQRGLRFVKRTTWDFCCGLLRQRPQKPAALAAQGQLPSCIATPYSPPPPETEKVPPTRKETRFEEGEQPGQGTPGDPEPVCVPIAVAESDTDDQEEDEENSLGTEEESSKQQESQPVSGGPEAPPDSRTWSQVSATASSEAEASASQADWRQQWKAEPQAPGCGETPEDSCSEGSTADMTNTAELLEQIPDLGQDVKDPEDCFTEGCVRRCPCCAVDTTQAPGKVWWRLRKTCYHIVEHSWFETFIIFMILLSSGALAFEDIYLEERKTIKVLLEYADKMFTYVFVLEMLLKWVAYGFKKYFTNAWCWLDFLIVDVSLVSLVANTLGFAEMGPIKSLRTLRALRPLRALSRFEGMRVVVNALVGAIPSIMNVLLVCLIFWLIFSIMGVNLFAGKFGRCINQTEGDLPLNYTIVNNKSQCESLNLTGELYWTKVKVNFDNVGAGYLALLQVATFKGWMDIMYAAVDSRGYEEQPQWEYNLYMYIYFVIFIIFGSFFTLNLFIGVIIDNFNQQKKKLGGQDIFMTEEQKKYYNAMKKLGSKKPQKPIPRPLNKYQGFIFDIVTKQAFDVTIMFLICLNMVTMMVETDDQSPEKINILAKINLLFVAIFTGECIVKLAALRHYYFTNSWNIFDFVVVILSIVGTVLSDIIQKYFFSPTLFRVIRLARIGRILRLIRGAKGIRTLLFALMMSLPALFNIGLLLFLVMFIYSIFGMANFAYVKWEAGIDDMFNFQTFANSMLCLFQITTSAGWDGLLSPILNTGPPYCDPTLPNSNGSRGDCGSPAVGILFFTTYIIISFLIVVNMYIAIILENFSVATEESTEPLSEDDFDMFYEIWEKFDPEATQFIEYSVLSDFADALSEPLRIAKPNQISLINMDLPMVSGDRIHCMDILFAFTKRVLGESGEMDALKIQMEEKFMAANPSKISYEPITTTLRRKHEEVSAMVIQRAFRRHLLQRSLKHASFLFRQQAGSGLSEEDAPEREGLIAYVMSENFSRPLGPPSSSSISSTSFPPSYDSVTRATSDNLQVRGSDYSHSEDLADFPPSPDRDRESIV
Chain of hNav1.3 (Q9NY46 whole entry, looked up): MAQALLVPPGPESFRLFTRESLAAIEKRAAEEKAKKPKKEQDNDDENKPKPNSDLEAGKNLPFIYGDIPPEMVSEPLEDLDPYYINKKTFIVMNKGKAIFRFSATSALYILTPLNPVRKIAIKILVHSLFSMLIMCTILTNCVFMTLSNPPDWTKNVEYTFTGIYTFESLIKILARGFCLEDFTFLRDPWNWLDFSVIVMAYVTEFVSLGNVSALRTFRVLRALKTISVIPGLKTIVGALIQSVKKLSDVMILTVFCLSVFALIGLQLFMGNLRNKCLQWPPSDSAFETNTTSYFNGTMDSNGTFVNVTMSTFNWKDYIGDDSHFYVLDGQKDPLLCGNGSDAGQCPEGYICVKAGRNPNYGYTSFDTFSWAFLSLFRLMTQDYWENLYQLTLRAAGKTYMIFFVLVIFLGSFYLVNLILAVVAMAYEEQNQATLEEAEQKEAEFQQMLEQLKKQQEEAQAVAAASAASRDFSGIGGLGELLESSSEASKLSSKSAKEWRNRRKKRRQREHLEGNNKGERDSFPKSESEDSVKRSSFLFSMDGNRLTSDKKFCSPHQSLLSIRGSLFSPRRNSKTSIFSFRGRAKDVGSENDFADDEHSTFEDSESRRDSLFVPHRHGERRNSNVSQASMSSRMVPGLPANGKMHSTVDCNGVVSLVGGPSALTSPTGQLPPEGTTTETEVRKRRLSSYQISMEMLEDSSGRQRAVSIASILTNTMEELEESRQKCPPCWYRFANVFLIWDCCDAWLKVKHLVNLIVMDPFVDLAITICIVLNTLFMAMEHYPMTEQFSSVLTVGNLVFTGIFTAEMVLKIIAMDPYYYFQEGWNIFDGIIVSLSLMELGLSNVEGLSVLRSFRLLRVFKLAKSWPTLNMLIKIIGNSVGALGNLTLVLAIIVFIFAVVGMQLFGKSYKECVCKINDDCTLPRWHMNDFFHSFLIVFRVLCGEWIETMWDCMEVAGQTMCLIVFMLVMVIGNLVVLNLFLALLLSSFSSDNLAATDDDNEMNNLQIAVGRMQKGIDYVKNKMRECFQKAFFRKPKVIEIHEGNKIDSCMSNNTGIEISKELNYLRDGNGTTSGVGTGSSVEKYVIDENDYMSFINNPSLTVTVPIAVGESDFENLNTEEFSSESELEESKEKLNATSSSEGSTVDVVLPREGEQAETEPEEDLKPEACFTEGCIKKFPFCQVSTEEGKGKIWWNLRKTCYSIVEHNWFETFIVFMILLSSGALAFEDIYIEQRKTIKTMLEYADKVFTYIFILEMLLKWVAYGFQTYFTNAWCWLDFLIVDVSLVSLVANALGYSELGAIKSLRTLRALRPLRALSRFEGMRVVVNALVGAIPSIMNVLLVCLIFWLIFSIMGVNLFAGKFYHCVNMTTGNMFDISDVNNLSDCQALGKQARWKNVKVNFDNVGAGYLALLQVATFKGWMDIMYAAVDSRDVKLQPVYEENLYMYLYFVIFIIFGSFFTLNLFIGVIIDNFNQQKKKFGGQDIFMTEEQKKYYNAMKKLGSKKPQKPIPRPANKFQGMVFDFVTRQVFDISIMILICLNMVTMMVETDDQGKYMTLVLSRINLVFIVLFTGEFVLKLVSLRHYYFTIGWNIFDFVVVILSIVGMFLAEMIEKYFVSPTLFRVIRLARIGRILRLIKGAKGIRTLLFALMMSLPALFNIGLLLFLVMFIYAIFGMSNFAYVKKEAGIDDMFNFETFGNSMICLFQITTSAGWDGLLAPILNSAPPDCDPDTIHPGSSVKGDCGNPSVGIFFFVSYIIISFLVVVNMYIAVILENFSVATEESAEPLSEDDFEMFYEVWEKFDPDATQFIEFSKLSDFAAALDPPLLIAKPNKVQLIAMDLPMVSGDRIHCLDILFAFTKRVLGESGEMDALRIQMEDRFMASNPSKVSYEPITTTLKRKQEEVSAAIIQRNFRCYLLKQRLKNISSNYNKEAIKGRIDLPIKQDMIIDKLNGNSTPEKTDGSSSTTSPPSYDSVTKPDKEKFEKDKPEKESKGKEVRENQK

For the compound `CC[C@H](C)[C@@H]1NC(=O)[C@@H]2CSSC[C@@H]3NC(=O)[C@H](C(C)C)NC(=O)[C@H](CC(C)C)NC(=O)[C@H](CC(N)=O)NC(=O)[C@@H]4CCCN4C(=O)[C@H](CCCNC(=N)N)NC(=O)[C@H](CSSC[C@H](NC(=O)[C@@H](N)CC(=O)O)C(=O)N[C@@H](CC(C)C)C(=O)NCC(=O)N[C@@H](Cc4ccccc4)C(=O)N[C@@H](CCSC)C(=O)N[C@@H](CCCNC(=N)N)C(=O)N[C@@H](CCCCN)C(=O)N2)NC(=O)[C@H](CSSC[C@@H](C(=O)N[C@@H](CCCCN)C(=O)N[C@@H](Cc2ccc(O)cc2)C(=O)N[C@H](C(=O)N[C@@H](Cc2ccccc2)C(N)=O)C(C)C)NC(=O)[C@H](Cc2c[nH]c4ccccc24)NC(=O)[C@H](CCCCN)NC(=O)[C@H](CCC(=O)O)NC(=O)[C@H]([C@@H](C)O)NC(=O)[C@H](CCCNC(=N)N)NC(=O)[C@H](CO)NC3=O)NC(=O)[C@H](CCCCN)NC(=O)[C@H](CC(=O)O)NC(=O)[C@H](CC(N)=O)NC(=O)[C@H](CC(=O)O)NC(=O)[C@@H]2CCCN2C1=O` [compound 29] (H-DCLGFMRKCIPDNDKCCRPNLVCSRTEKWCKYVF-NH2; disulfide 2-17, 9-23, 16-30), the IC50 was found to be 15.2 µM at hNav1.5 (Table 23, IonWorks Quattro, use, […], read-out: IWQ Use Nav1.5); 8.54 µM on hNav1.7 (Table 23, use, […], read-out: IWQ Use Nav1.7); 12.3 µM on hNav1.3 (Table 23, use, […]).
As to `CC[C@H](C)[C@@H]1NC(=O)[C@@H]2CSSC[C@@H]3NC(=O)[C@H](C(C)C)NC(=O)[C@H](CC(C)C)NC(=O)[C@H](CC(N)=O)NC(=O)[C@@H]4CCCN4C(=O)[C@H](CCCNC(=N)N)NC(=O)[C@H](CSSC[C@H](NC(=O)[C@@H](N)CC(=O)O)C(=O)N[C@@H](CC(C)C)C(=O)NCC(=O)N[C@@H](Cc4ccccc4)C(=O)N[C@@H](CCSC)C(=O)N[C@@H](CCCNC(=N)N)C(=O)N[C@@H](CCCCN)C(=O)N2)NC(=O)[C@H](CSSC[C@@H](C(=O)N[C@@H](CCC(=O)O)C(=O)N[C@@H](Cc2ccc(O)cc2)C(=O)N[C@H](C(=O)N[C@@H](Cc2ccccc2)C(N)=O)C(C)C)NC(=O)[C@H](Cc2c[nH]c4ccccc24)NC(=O)[C@H](CCCCN)NC(=O)[C@H](Cc2cnc[nH]2)NC(=O)[C@H]([C@@H](C)O)NC(=O)[C@H](CCCNC(=N)N)NC(=O)[C@H](CO)NC3=O)NC(=O)[C@H](CCCCN)NC(=O)[C@H](CC(=O)O)NC(=O)[C@H](CC(N)=O)NC(=O)[C@H](CC(=O)O)NC(=O)[C@@H]2CCCN2C1=O` [compound 31] (H-DCLGFMRKCIPDNDKCCRPNLVCSRTHKWCEYVF-NH2; disulfide 2-17, 9-23, 16-30), the IC50 was determined as 21.7 µM at hNav1.5 (Table 25, IonWorks Quattro, use, […], read-out: IWQ Use Nav1.5); 23 µM on hNav1.7 (Table 25, use, […], read-out: IWQ Use Nav1.7); 13.1 µM at hNav1.3 (Table 25, use, […]).
With `CC[C@H](C)[C@@H]1NC(=O)[C@@H]2CSSC[C@@H]3NC(=O)[C@H](C(C)C)NC(=O)[C@H](CC(C)C)NC(=O)[C@H](CC(N)=O)NC(=O)[C@@H]4CCCN4C(=O)[C@H](CCCNC(=N)N)NC(=O)[C@H](CSSC[C@H](NC(=O)[C@@H](N)CC(=O)O)C(=O)N[C@@H](CC(C)C)C(=O)NCC(=O)N[C@@H](Cc4ccccc4)C(=O)N[C@@H](CCSC)C(=O)N[C@@H](CCCNC(=N)N)C(=O)N[C@@H](CCCCN)C(=O)N2)NC(=O)[C@H](CSSC[C@@H](C(=O)N[C@@H](CCCCN)C(=O)N[C@@H](Cc2ccc(O)cc2)C(=O)N[C@H](C(=O)N[C@@H](CCC(=O)O)C(N)=O)C(C)C)NC(=O)[C@H](Cc2c[nH]c4ccccc24)NC(=O)[C@H](CCCCN)NC(=O)[C@H](Cc2cnc[nH]2)NC(=O)[C@H]([C@@H](C)O)NC(=O)[C@H](CCCNC(=N)N)NC(=O)[C@H](CO)NC3=O)NC(=O)[C@H](CCCCN)NC(=O)[C@H](CC(=O)O)NC(=O)[C@H](CC(N)=O)NC(=O)[C@H](CC(=O)O)NC(=O)[C@@H]2CCCN2C1=O` [compound 34] (H-DCLGFMRKCIPDNDKCCRPNLVCSRTHKWCKYVE-NH2; disulfide 2-17, 9-23, 16-30), the IC50 at hNav1.5 (IWQ Use Nav1.5 (μM)) was found to be 16.8 µM; on hNav1.7 (use-dependent, […], read-out: IWQ Use Nav1.7), 17 µM; at hNav1.3 (use-dependent, […]), 11.2 µM.
For `CC[C@H](C)[C@@H]1NC(=O)[C@@H]2CSSC[C@@H]3NC(=O)[C@H](C(C)C)NC(=O)[C@H](CC(C)C)NC(=O)[C@H](CC(N)=O)NC(=O)[C@@H]4CCCN4C(=O)[C@H](CCCNC(=N)N)NC(=O)[C@H](CSSC[C@H](NC(=O)[C@@H](N)CC(=O)O)C(=O)N[C@@H](CC(C)C)C(=O)NCC(=O)N[C@@H](Cc4ccccc4)C(=O)N[C@@H](CCSC)C(=O)N[C@@H](CCCNC(=N)N)C(=O)N[C@@H](CCCCN)C(=O)N2)NC(=O)[C@H](CSSC[C@@H](C(=O)N[C@@H](CCCCN)C(=O)N[C@@H](Cc2ccc(O)cc2)C(=O)N[C@H](C(=O)N[C@@H](Cc2ccccc2)C(=O)N[C@@H](CCC(=O)O)C(N)=O)C(C)C)NC(=O)[C@H](Cc2c[nH]c4ccccc24)NC(=O)[C@H](CCCCN)NC(=O)[C@H](Cc2c[nH]cn2)NC(=O)[C@H]([C@@H](C)O)NC(=O)[C@H](CCCNC(=N)N)NC(=O)[C@H](CO)NC3=O)NC(=O)[C@H](CCCCN)NC(=O)[C@H](CC(=O)O)NC(=O)[C@H](CC(N)=O)NC(=O)[C@H](CC(=O)O)NC(=O)[C@@H]2CCCN2C1=O` [compound 35], the IC50 on hNav1.5 (IWQ Use Nav1.5 (μM)) was 19.6 µM; on hNav1.7 (use-dependent, […], read-out: IWQ Use Nav1.7 (μm)), 4.47 µM; at hNav1.3 (use-dependent, […]) it was 2.47 µM.
For `CSCC[C@@H]1NC(=O)[C@H](Cc2ccccc2)NC(=O)CNC(=O)[C@H](CC(C)C)NC(=O)[C@@H](NC(=O)[C@@H](N)CC(=O)O)CSSC[C@@H]2NC(=O)[C@@H]3CSSC[C@@H](C(=O)N[C@@H](CCCCN)C(=O)N[C@@H](Cc4ccc(O)cc4)C(=O)N[C@H](C(=O)N[C@@H](Cc4ccccc4)C(N)=O)C(C)C)NC(=O)[C@H](Cc4c[nH]c5ccccc45)NC(=O)[C@H](CCCCN)NC(=O)[C@H](Cc4cnc[nH]4)NC(=O)[C@H]([C@@H](C)O)NC(=O)[C@H](CCCNC(=N)N)NC(=O)[C@H](CO)NC(=O)[C@H](CSSC[C@H](NC(=O)[C@H](CCCCN)NC(=O)[C@H](CCCNC(=N)N)NC1=O)C(=O)N[C@@H](CCCCN)C(=O)N1CCC[C@H]1C(=O)N[C@@H](CC(=O)O)C(=O)N[C@@H](CC(N)=O)C(=O)N[C@@H](CC(=O)O)C(=O)N[C@@H](CCCCN)C(=O)N3)NC(=O)[C@H](C(C)C)NC(=O)[C@H](CC(C)C)NC(=O)[C@H](CC(N)=O)NC(=O)[C@@H]1CCCN1C(=O)[C@H](CCCNC(=N)N)NC2=O` [compound 41] (H-DCLGFMRKCKPDNDKCCRPNLVCSRTHKWCKYVF-NH2; disulfide 2-17, 9-23, 16-30), the IC50 came to 9 µM at hNav1.5 (setting [1]); 0.24 µM at hNav1.7 (Use, read-out: IWQ Use Nav1.7); 0.15 µM at hNav1.3 (Use).
Consider `CC[C@H](C)[C@@H]1NC(=O)[C@@H]2CSSC[C@@H]3NC(=O)[C@H](C(C)C)NC(=O)[C@H](CC(C)C)NC(=O)[C@H](CC(N)=O)NC(=O)[C@@H]4CCCN4C(=O)[C@H](CCCNC(=N)N)NC(=O)[C@H](CSSC[C@H](NC(=O)[C@@H](N)CC(=O)O)C(=O)N[C@@H](CC(C)C)C(=O)NCC(=O)N[C@@H](Cc4ccccc4)C(=O)N[C@@H](CCSC)C(=O)N[C@@H](CCCNC(=N)N)C(=O)N[C@@H](CCCCN)C(=O)N2)NC(=O)[C@H](CSSC[C@@H](C(=O)N[C@@H](CCCCN)C(=O)N[C@@H](Cc2ccc(O)cc2)C(=O)N[C@H](C(=O)N[C@@H](Cc2ccccc2)C(N)=O)C(C)C)NC(=O)[C@H](Cc2c[nH]c4ccccc24)NC(=O)[C@H](CCCCN)NC(=O)[C@H](Cc2cnc[nH]2)NC(=O)[C@H]([C@@H](C)O)NC(=O)[C@H](CCCNC(=N)N)NC(=O)[C@H](CO)NC3=O)NC(=O)[C@H](CCCCN)NC(=O)[C@H](CC(=O)O)NC(=O)[C@H](CC(N)=O)NC(=O)[C@H](CC(=O)O)NC(=O)[C@H](C)NC1=O` [compound 46] (H-DCLGFMRKCIADNDKCCRPNLVCSRTHKWCKYVF-NH2; disulfide 2-17, 9-23, 16-30), for which the IC50 on hNav1.5 (setting [1]) was 16.1 µM; at hNav1.7 (Use, read-out: IWQ Use Nav1.7), 0.21 µM; at hNav1.3 (Use) it was 0.18 µM.
Take `CC[C@H](C)[C@@H]1NC(=O)[C@@H]2CSSC[C@@H]3NC(=O)[C@H](C(C)C)NC(=O)[C@H](CC(C)C)NC(=O)[C@H](CC(N)=O)NC(=O)[C@@H]4CCCN4C(=O)[C@H](CCCNC(=N)N)NC(=O)[C@H](CSSC[C@H](NC(=O)[C@@H](N)CC(=O)O)C(=O)N[C@@H](CC(C)C)C(=O)NCC(=O)N[C@@H](Cc4ccccc4)C(=O)N[C@@H](CCSC)C(=O)N[C@@H](CCCNC(=N)N)C(=O)N[C@@H](CCCCN)C(=O)N2)NC(=O)[C@H](CSSC[C@@H](C(=O)N[C@@H](CCCCN)C(=O)N[C@@H](Cc2ccc(O)cc2)C(=O)N[C@H](C(=O)N[C@@H](Cc2ccccc2)C(N)=O)C(C)C)NC(=O)[C@H](C)NC(=O)[C@H](CCCCN)NC(=O)[C@H](Cc2cnc[nH]2)NC(=O)[C@H]([C@@H](C)O)NC(=O)[C@H](CCCNC(=N)N)NC(=O)[C@H](CO)NC3=O)NC(=O)[C@H](CCCCN)NC(=O)[C@H](CC(=O)O)NC(=O)[C@H](CC(N)=O)NC(=O)[C@H](CC(=O)O)NC(=O)[C@@H]2CCCN2C1=O` [compound 47] (H-DCLGFMRKCIPDNDKCCRPNLVCSRTHKACKYVF-NH2; disulfide 2-17, 9-23, 16-30): the IC50 amounted to 16.2 µM at hNav1.5 (Table 24, IonWorks Quattro, use, […], read-out: IWQ Use Nav1.5); 11.7 µM at hNav1.7 (Table 24, use, […], read-out: IWQ Use Nav1.7); 27.5 µM at hNav1.3 (Table 24, use, […]).
